{
  "source": "patent US11247996B2",
  "about": "“Small molecule inhibitors for transcription factors” (University of Massachusetts, priority 2016, dated 2022)",
  "key": {"[1]": {"test_system": "full-length HIV-1 NL4-3 (X4) viruses in Jurkat cells", "assay": "Viral production in full-length HIV-1 NL4-3 infected Jurkat cells (qRT-PCR of medium)", "format": "cell-based", "conditions": "full replication competent NL4-3 infected Jurkat cells, 24 hours", "description": "To determine the effect of UMB-136 on HIV-1 replication, Jurkat cells were infected with full-length HIV-1 NL4-3 (X4) viruses for 8 hours before being treated with compounds (UMB-136, JQ1, or prostratin) for 24 hours. The medium was collected and subjected to viral RNA extraction, reverse transcription, and qPCR assays by using Lenti-X™ qRT-PCR Titration Kit (Clontech, Mountain View, Calif.) following the manufacturer's instructions."}, "[2]": {"test_system": "latent HIV-1 in J-Lat clones (6.3, 8.4, 9.2, and 10.4)", "assay": "Flow cytometry on J-Lat full-length (dEnv) clones, single LRA", "format": "cell-based", "conditions": "J-Lat 6.3, 8.4, 9.2, 10.4; UMB-136 2.5 and 5 (printed PM), JQ1 1 μM; 24 hours", "description": "(§1) The CD4+ T-lymphoid cell lines included Jurkat, J-Lat A2 (harboring an LTR-Tat-IRES-GFP construct), J-Lat 6.3, 8.4, 9.2, 10.4 (containing a full-length integrated HIV-1 genome with a defective envelop, that express GFP upon activation). Monocytic THP89GFP cells were provided by David Levy (New York University). Jurkat cells were cultured in RPMI with 10% FBS. THP89GFP and Primary CD4+ helper T cells (Sanguine Biosciences, Sherman Oaks, Calif. and Lonza Group Ltd., Basel, Switzerland) were cultured and maintained respectively in complete medium (RPMI 1640 with 10% FBS, lx glutamine, lx MEM non-essential amino acid solution, and 20 mM HEPES).\n(§2) The HIV-1 latency-reversing effect of UMB-136 was evaluated on different reservoirs (lymphocytes and macrophages), J-Lat cell clones (6.3, 8.4, 9.2, and 10.4) and THP89GFP were treated with DMSO, JQ1 (1 μM), or UMB-136 (2.5, 5 μM for J-Lat cells, 5 μM for THP89GFP). For the investigation of synergistic effects JLat clones were treated with UMB-136 (2.5 μM), JQ1 (1 μM), SAHA (0.5 μM) or prostratin (1 μM) or DMSO as a control. Drugs were used alone or in combination. Flow cytometry was conducted at 24 hours post treatment and GFP-positive cells were quantified.\n(§3) All flow cytometry assays were conducted using an Accuri C6 Flow Cytometer (Accuri, Ann Arbor, Mich.). […]"}, "[3]": {"test_system": "latent HIV-1 89.6 strain in THP89GFP cells", "assay": "Flow cytometry on THP89GFP monocytic latency cells", "format": "cell-based", "conditions": "UMB-136 5 μM, JQ1 1 μM, 24 hours", "description": "as §1, §2, §3"}, "[4]": {"test_system": "latent HIV-1 in non-polarized, memory CD4+ T cells", "assay": "Primary CD4+ T cell model of HIV-1 latency (blood or tonsil)", "format": "cell-based", "conditions": "primary CD4+ T cells from blood or lymph node (tonsil), two donors; compound alone", "description": "To acquire primary CD4+ T cells, primary CD4+ T cells were isolated from either lymphoid tissue (tonsil) or from the peripheral blood of two donors. Tonsils were isolated from HIV-negative donors, with obstructive sleep apnea (OSA), whom required surgical removal of their tonsils. Isolation of tonsillar mononuclear cells (TMC) was performed as described in Johnston et al. Curr Protoc Immunol Chapter 7, Unit 7-8. In brief, fresh, healthy tonsils kept in ice-cold 1× Hank's Balanced Salt Solution (HBSS) with antibiotics (100 U/mL penicillin, 100 ug/mL streptomycin, 5 ug/mL gentamicin, 0.5 ug/mL amphotericin) were cut into 3- to 10-mm fragments with scalpels then pushed through a 3-inch stainless steel sieve using the flat end of a 5-mL plastic syringe plunger. […]\nThe LRA effect of UMB-136 was studied by modifying slightly a primary CD4+ T cell model of HIV-1 latency as described in Bosque et al. Methods. […] On day 21, 5 days post treatment, the supernatant was collected for quantification of newly produced viruses using the Lent-X™ qRT-PCR Titration Kit (Clontech, Mountain View, Calif.) following the manufacturer's instructions."}, "[5]": {"test_system": "latent HIV-1 in J-Lat clones (6.3, 8.4, 9.2, and 10.4)", "assay": "LRA combinations in J-Lat clones (flow cytometry, Bliss independence model)", "format": "cell-based", "conditions": "for Synergy in reversing HIV-1, combination with prostratin: +prostratin 1 μM", "description": "as §2\n(§4) All flow cytometry assays were conducted using an Accuri C6 Flow Cytometer (Accuri, Ann Arbor, Mich.). Cell debris and aggregates were excluded by gating on the Forward Scatter (FS) and Side Scatter (SS) parameters."}, "[6]": {"test_system": "latent HIV-1 in CD8-depleted PBMCs", "conditions": "JQ1 in combination with bryostatin-1, earlier reports; cited from earlier work"}, "[7]": {"test_system": "latent HIV-1 in J-Lat A2 cells", "assay": "HIV-1 latency-reversing flow cytometry assay in J-Lat A2 cells", "format": "cell-based", "conditions": "5 μM; for HIV-1 reactivation (GFP-positive cells): 24 hours post treatment", "description": "as §1\nWells were treated with 5 μM of compound or dimethyl sulfoxide (DMSO). GFP-positive cells were acquired and analyzed by flow cytometry at 24 hours post treatment.\nas §4"}, "[8]": {"molecular_target": "BRD4 (Homo sapiens, UniProt O60885)", "conditions": "McKeown et al., J Med Chem, 2014; cited from earlier work"}, "[9]": {"molecular_target": "TAF1 (Homo sapiens, UniProt P21675)", "sequence (P21675 whole entry)": "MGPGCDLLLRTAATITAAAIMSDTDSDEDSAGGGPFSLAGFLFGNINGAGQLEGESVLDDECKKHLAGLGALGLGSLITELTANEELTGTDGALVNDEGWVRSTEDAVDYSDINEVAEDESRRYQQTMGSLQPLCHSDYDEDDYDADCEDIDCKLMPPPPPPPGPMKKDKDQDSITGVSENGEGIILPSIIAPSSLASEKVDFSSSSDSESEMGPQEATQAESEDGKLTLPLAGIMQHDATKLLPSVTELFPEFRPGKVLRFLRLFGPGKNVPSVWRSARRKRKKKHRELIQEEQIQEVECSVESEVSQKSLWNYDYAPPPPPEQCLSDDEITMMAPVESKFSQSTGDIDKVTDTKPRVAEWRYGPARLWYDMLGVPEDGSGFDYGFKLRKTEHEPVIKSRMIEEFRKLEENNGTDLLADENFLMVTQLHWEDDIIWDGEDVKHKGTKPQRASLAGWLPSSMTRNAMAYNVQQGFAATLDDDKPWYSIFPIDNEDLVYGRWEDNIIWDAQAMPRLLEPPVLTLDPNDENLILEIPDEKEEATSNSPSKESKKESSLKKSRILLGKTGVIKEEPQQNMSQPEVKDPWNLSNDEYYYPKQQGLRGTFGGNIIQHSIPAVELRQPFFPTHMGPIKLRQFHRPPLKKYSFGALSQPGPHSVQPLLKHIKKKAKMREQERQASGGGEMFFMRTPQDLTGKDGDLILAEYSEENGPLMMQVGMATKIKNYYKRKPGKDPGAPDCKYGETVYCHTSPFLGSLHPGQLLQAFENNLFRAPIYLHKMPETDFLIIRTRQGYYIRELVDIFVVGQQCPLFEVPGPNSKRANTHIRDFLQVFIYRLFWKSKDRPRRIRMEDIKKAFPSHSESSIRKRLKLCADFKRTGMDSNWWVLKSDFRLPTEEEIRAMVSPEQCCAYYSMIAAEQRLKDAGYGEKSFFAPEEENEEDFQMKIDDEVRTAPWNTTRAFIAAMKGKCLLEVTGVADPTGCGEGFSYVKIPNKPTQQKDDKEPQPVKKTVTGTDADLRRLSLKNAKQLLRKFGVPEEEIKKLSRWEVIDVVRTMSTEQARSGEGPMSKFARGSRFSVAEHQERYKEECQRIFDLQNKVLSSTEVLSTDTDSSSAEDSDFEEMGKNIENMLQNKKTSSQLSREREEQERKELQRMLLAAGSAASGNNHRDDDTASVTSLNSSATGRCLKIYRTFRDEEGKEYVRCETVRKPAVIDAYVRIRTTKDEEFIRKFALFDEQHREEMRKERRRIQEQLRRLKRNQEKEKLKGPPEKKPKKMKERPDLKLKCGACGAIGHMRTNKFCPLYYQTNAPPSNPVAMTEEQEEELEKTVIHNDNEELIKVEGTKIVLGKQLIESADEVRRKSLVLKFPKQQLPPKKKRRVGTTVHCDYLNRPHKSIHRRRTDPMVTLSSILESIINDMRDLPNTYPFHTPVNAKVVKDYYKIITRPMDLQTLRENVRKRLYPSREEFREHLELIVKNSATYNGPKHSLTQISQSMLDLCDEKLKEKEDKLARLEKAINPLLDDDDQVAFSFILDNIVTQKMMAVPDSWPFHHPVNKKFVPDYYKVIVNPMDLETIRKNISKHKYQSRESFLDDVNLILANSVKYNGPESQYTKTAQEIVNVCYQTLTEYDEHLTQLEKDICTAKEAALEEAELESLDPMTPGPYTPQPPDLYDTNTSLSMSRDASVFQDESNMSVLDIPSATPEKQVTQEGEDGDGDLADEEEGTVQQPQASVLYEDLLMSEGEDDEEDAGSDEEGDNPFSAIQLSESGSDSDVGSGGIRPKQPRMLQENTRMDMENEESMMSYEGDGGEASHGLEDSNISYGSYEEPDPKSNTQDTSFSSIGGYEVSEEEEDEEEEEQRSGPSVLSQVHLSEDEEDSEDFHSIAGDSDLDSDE", "conditions": "McKeown et al., J Med Chem, 2014; cited from earlier work"}, "[10]": {"molecular_target": "T1, endogenous BRD4 (Homo sapiens, UniProt O60885)", "T1 construct": "endogenous in cells; host or cells: HEK293", "assay": "Pull-down with biotinylated UMB-136 from HEK293 cell lysate, BRD4 immunoblot", "format": "binding", "conditions": "biotinylated UMB-136, HEK293 cell lysate", "description": "(§5) Pull-down and Immunoprecipitation (IP) assays were performed by incubating HEK293 cell lysate with either biotinylated UMB-136 or biotin in DMSO at 4° C. overnight with orbital rocking. MyOne™ Streptavidin T1 Dynabeads™ (Invitrogen, Carlsbad, Calif.) were added to the mixture which was then incubated for 2 hours. Beads were washed and then boiled to elute precipitated proteins, which were subjected to immunoblotting using BRD4 antibody (Bethyl Laboratories, Inc., Montgomery, Tex.) or BRD2 antibody (Santa Cruz Biotechnology, Dallas, Tex.)."}, "[11]": {"molecular_target": "T2, BRD2 (Homo sapiens, UniProt P25440)", "T2 construct": "endogenous in cells; host or cells: HEK293", "T2 sequence (P25440 whole entry)": "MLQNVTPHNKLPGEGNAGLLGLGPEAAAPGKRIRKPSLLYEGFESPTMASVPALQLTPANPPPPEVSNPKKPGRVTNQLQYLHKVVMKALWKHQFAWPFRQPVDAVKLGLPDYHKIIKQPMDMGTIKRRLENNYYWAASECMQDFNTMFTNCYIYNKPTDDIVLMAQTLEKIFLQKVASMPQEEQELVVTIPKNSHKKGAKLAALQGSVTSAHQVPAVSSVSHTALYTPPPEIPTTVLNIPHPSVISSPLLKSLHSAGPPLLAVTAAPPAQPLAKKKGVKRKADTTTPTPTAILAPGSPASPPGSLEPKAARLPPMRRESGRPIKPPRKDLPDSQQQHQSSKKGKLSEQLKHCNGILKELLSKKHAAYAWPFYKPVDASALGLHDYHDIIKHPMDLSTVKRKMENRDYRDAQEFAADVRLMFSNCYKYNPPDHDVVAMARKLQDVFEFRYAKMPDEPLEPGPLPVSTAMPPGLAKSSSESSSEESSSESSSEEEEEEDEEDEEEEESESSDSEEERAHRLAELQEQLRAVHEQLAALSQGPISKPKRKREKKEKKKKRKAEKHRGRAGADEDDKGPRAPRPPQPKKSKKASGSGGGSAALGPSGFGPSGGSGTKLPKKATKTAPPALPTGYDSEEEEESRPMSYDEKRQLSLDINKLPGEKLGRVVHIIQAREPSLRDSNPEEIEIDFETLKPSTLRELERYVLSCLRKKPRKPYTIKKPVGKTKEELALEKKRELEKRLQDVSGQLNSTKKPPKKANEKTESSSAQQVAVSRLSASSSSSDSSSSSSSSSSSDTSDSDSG", "assay": "Pull-down with biotinylated UMB-136 from HEK293 cell lysate, BRD2 immunoblot", "format": "binding", "conditions": "biotinylated UMB-136, HEK293 cell lysate", "description": "as §5"}, "[12]": {"test_system": "P-TEFb (CCNT1) and Tat", "assay": "Tat-Flag immunoprecipitation in HeLa cells, Cyclin T1 immunoblot", "format": "cell-based", "conditions": "2.5 μM, 24 hours", "description": "Tat-Flag expressing HeLa cells were treated with UMB-136 (2.5 μM) or DMSO for 24 hours, then incubated with Magnetic Flag Conjugated beads (Clontech, Mountain View, Calif.) at 4° C. for overnight with orbital rocking. Beads were washed and boiled, then immunoblotting was performed using Cyclin T1 antibody (Santa Cruz Biotechnology, Dallas, Tex.)."}, "[13]": {"test_system": "VSV-G pseudo-typed HIV-1 NL4-3-Luciferase virus infected Jurkat cells", "format": "cell-based"}, "[14]": {"test_system": "primary CD4+ T cells", "assay": "Cytokine release in primary CD4+ T cells from healthy donor", "format": "cell-based"}, "[15]": {"test_system": "latent HIV-1 in CD8-depleted PBMCs", "assay": "Ex vivo latency reversal in CD8-depleted PBMCs of cART-treated aviremic patients (nested qPCR)", "format": "cell-based"}, "[16]": {"test_system": "CD8-depleted PBMCs", "assay": "Cell death due to LRA treatments in CD8-depleted PBMCs", "format": "cell-based", "conditions": "compared with JQ1 combinations"}, "[17]": {"test_system": "Jurkat cells", "conditions": "human, 24 h, 2.5 μM", "quoted_text": "Cell viability assays were performed by culturing Jurkat cells in a 48-well plate at 1×10^5 cells per well in a total volume of 250 μl RPMI media with 10% FBS. […] After an incubation period of 24 hours, cells were lysed. The total ATP content was measured using Cell Titer Glo (Promega Corporation, Madison, Wis.)."}, "[18]": {"conditions": "J-Lat clones, Bliss independence model"}},
  "data": [
    {"molecule": "Cc1sc2c(c1C)C(c1ccc(Cl)cc1)=N[C@@H](CC(=O)OC(C)(C)C)c1nnc(C)n1-2", "note": "[JQ1, reference compound]", "values": [
      {"measurement": "Viral production", "setting": "[1]", "value": "did not"},
      {"measurement": "Reversal of HIV-1 latency (GFP-positive cells)", "setting": "[2]", "value": "no observable effect"},
      {"measurement": "Reactivation of latent HIV-1", "setting": "[3]", "value": "did not"},
      {"measurement": "Reactivation of latent virus", "setting": "[4]", "value": "fails to do so"},
      {"measurement": "Reactivation of latent HIV-1, combination with SAHA", "setting": "[5]; J-Lat cell clones, JQ1+SAHA combination", "value": "minimally reactivates latent HIV-1"},
      {"measurement": "Synergy in reversing HIV-1, combination with prostratin", "setting": "[5]; [18]", "value": "significantly synergizes with prostratin"},
      {"measurement": "Reversal of HIV-1 latency, combination with bryostatin-1 (reported)", "setting": "[6]", "value": "potently reverse HIV-1 latency"}
    ]},
    {"molecule": "Cc1noc(C)c1-c1ccc(-c2nc3cnccn3c2NC(C)(C)C)cc1", "note": "[UMB-32]", "values": [
      {"measurement": "HIV-1 reactivation (GFP-positive cells)", "setting": "[7]", "value": "significantly induced HIV-1 reactivation"},
      {"measurement": "Binding to BRD4", "setting": "[8]", "value": "strongly binds"},
      {"measurement": "Inhibition of target binding of BRD4", "setting": "[8]", "value": "potently inhibits the target binding of BRD4"},
      {"measurement": "Binding to TAF1", "setting": "[9]", "value": "strongly binds"}
    ]},
    {"molecule": "COc1cc(-c2c(C)noc2C)ccc1-c1nc2cnccn2c1NC1CCCCC1", "note": "[UMB-136]", "values": [
      {"measurement": "HIV-1 latency-reversing potency relative to other UMB compounds", "setting": "[7]; 24 hours", "value": "most effective of all"},
      {"measurement": "HIV-1 reactivation (GFP-positive cells)", "setting": "[7]", "value": "significantly induced HIV-1 reactivation"},
      {"measurement": "Binding to endogenous BRD4 (pull-down)", "setting": "[10]", "value": "binds to endogenous BRD4"},
      {"measurement": "Binding to BRD2 (pull-down)", "setting": "[11]", "value": "not BRD2"},
      {"measurement": "Protein association between P-TEFb (CCNT1) and Tat", "setting": "[12]", "value": "greater protein association between P-TEFb (CCNT1) and Tat"},
      {"measurement": "HIV-1 transcriptional initiation and elongation", "setting": "[13]", "value": "enhances both transcriptional initiation and elongation of HIV-1"},
      {"measurement": "Viral production", "setting": "[1]", "value": "enhanced viral production"},
      {"measurement": "Reversal of HIV-1 latency (GFP-positive cells)", "setting": "[2]", "value": "dramatically reversed HIV-1 latency"},
      {"measurement": "Reactivation of latent HIV-1", "setting": "[3]", "value": "substantial reactivation"},
      {"measurement": "Reactivation of latent virus", "setting": "[4]", "value": "efficiently reactivated latent virus"},
      {"measurement": "Cytokine release", "setting": "[14]", "value": "does not induce cytokine release"},
      {"measurement": "Synergy in reversing HIV-1, combination with SAHA", "setting": "[5]; J-Lat clones, Bliss independence model, +SAHA 0.5 μM", "value": "statistically significant synergistic effect"},
      {"measurement": "Synergy in reversing HIV-1, combination with prostratin", "setting": "[5]; [18]", "value": "statistically significant synergistic effect"},
      {"measurement": "HIV-1 reactivation in combination with SAHA or prostratin, compared with JQ1 combination", "setting": "[5]; J-Lat clones, UMB-136 2.5 μM, SAHA 0.5 μM, prostratin 1 μM", "value": "greater effect of HIV-1 reactivation than its JQ1 counterpart"},
      {"measurement": "Viral reactivation, combination with bryostatin-1, compared with JQ1+bryostatin-1", "setting": "[15]", "value": "even greater viral reactivation"},
      {"measurement": "Reversal of HIV-1 latency, combination with PKC agonists (prostratin or bryostatin-1)", "setting": "[15]; CD8-depleted PBMCs, UMB-136 2.5 μM, prostratin 250 nM or bryostatin-1 10 nM, 48 hours", "value": "observed to reverse HIV-1 latency"},
      {"measurement": "Cytotoxicity (cell death) of combinations with prostratin/bryostatin-1", "setting": "[16]", "value": "less cytotoxicity than JQ1 and prostratin/bryostatin-1 combinations"},
      {"measurement": "Cell viability", "setting": "[17]", "value": "same viability as 1 μM of JQ1"}
    ]}
  ]
}
